Test [1] relates to Human immunodeficiency virus 1. As to the kind of experiment: Inhibitory activity against human immunodeficiency virus type 1 (inactive>0.1). The test is classed as functional, organism-based.
The subject of test [2] is Human immunodeficiency virus 1. As to the kind of experiment: Inhibitory activity against human immunodeficiency virus type 1. The test is classed as functional, organism-based.

The values that follow come from ChEMBL document CHEMBL1144258, “Topochemical model for prediction of anti-HIV activity of HEPT analogs” (Bioorg Med Chem Lett, 2005).

As usually defined, the IC50 is the concentration at which inhibition is half-maximal. Higher therefore signals weaker potency.

Structures are written as SMILES. Where only a bound is given, the exact number is not on record here.

`Cc1c(SC2CCCCC2)n(COCNc2ccccc2)c(=O)[nH]c1=O`: the IC50 entry in test [1] is recorded as “Inactive”. Still for that read-out and setting: with `Cc1c(SC2CCCCC2)n(COCNC(=O)CNCP(=O)(O)O)c(=O)[nH]c1=O` the entry was “Inactive”. As for `Cc1c(Sc2ccccc2)n(COCc2ccco2)c(=O)[nH]c1=O`, in test [1], the 50% inhibitory concentration (IC50) result is “Inactive”.

Regarding `Cc1c(SC2CCCCC2)n(COCBr)c(=O)[nH]c1=O`, in test [1], the IC50 result is reported as “Inactive”.

As to `Cc1c(SC2CCCCC2)n(COCN2CCOCC2)c(=O)[nH]c1=O`, the IC50 entry in test [1] was “Inactive”.

As to `Cc1c(SC2CCCCC2)n(COCN(CC#N)CC#N)c(=O)[nH]c1=O`, the IC50 entry in test [1] is reported as “Inactive”. The same measure, in the same setting: with `Cc1c(Sc2ccccc2)n(COCc2cccs2)c(=O)[nH]c1=O` the entry was “Inactive”; with `Cc1c(SC2CCCCC2)n(COCI)c(=O)[nH]c1=O`, “Inactive”; with `CCc1c(Sc2ccccc2)n(COCc2ccc([N+](=O)[O-])s2)c(=O)[nH]c1=O`, “Inactive”. Still for that read-out and setting: with `Cc1c(SC2CCCCN2)n(COCSc2ccncc2)c(=O)[nH]c1=O` (stereo not drawn) the entry was “Inactive”; with `Cc1c(Sc2ccccc2)n(COCc2ccc([N+](=O)[O-])s2)c(=O)[nH]c1=O`, “Inactive”; with `Cc1c(SC2CCCCC2)n(COCNC(=O)c2ccccc2)c(=O)[nH]c1=O`, “Inactive”. On the same count and under the same terms, in the case of `Cc1c(SC2CCCCN2)n(COCNc2ccccc2)c(=O)[nH]c1=O` (stereo not drawn) it was “Inactive”. Turning to `Cc1c(SC2CCCCC2)n(COCN(c2ccccc2)c2ccccc2)c(=O)[nH]c1=O`, the IC50 entry in test [1] was “Inactive”. Regarding `Cc1c(SC2CCCCC2)n(COCSc2ccccc2)c(=O)[nH]c1=O`, in test [1], the IC50 entry is “Inactive”.

As for `Cc1c(SC2CCCCC2)n(COCN)c(=O)[nH]c1=O`, in test [1], the IC50 result is “Inactive”. The same measure, in the same setting: with `Cc1c(SC2CCCCC2)n(COCN2CCNCC2)c(=O)[nH]c1=O` the entry was “Inactive”; with `Cc1c(SC2CCCCC2)n(COCSc2ccncc2)c(=O)[nH]c1=O`, “Inactive”; with `Cc1c(SC2CCCCC2)n(COCN(C(=O)c2ccccc2)C(=O)c2ccccc2)c(=O)[nH]c1=O`, “Inactive”. As to `Cc1c(SC2CCCCC2)n(COCNC(=O)CCCl)c(=O)[nH]c1=O`, in test [1], the IC50 entry is recorded as “Inactive”. Consider `Cc1c(Sc2ccccc2)n(COCC2CCCCC2)c(=O)[nH]c1=O`, for which, in test [1], the IC50 result was “Inactive”.

For `Cc1c(Sc2ccccc2)n(COCc2cccnc2)c(=O)[nH]c1=O`, the IC50 result in test [1] is listed as “Inactive”. Consider `CCc1c(Sc2ccccc2)n(COCc2ccccc2)c(=O)[nH]c1=O`, for which the IC50 in test [2] is < 100 nM. Same read-out and setting: in the case of `CCc1c(Sc2cc(C)cc(C)c2)n(COCc2ccccc2)c(=O)[nH]c1=O` it was < 100 nM. Regarding `Cc1c(SC2CCCCC2)n(COCNC(=O)CP(=O)(O)O)c(=O)[nH]c1=O`, in test [1], the IC50 result is “Inactive”.

In the case of `CCc1c(Sc2cc(C)cc(C)c2)n(COCc2ccco2)c(=O)[nH]c1=O`, in test [2], the IC50 was < 100 nM.

In the case of `CCc1c(Sc2ccccc2)n(COCc2ccco2)c(=O)[nH]c1=O`, the IC50 in test [2] is < 100 nM. Same read-out and setting: in the case of `CCc1c(Sc2ccccc2)n(COCc2cc3ccccc3o2)c(=O)[nH]c1=O` it was < 100 nM; in that of `CCc1c(Sc2cc(C)cc(C)c2)n(COCc2cccs2)c(=O)[nH]c1=O`, < 100 nM. Still for that read-out and setting: in the case of `CCc1c(Sc2ccccc2)n(COCc2cccs2)c(=O)[nH]c1=O` it was < 100 nM. Consider `Cc1c(SC2CCCCN2)n(COCSc2ccccc2)c(=O)[nH]c1=O` (stereo not drawn), for which, in test [1], the IC50 entry is on record as “Inactive”. Turning to `Cc1c(Sc2ccccc2)n(COCc2ccccc2)c(=O)[nH]c1=O`, in test [1], the IC50 result is recorded as “Inactive”. The same measure, in the same setting: in the case of `Cc1c(Sc2ccccc2)n(COCc2cc3ccccc3o2)c(=O)[nH]c1=O` it was “Inactive”.
